Bounds are passed on as bounds.

This is an account of results in patent US20110082130A1 (LIGAND PHARMACEUTICALS, INC., priority 2006, published 2011).

T1 sequence (Q9Y5N1 with tags, fused parts or gaps): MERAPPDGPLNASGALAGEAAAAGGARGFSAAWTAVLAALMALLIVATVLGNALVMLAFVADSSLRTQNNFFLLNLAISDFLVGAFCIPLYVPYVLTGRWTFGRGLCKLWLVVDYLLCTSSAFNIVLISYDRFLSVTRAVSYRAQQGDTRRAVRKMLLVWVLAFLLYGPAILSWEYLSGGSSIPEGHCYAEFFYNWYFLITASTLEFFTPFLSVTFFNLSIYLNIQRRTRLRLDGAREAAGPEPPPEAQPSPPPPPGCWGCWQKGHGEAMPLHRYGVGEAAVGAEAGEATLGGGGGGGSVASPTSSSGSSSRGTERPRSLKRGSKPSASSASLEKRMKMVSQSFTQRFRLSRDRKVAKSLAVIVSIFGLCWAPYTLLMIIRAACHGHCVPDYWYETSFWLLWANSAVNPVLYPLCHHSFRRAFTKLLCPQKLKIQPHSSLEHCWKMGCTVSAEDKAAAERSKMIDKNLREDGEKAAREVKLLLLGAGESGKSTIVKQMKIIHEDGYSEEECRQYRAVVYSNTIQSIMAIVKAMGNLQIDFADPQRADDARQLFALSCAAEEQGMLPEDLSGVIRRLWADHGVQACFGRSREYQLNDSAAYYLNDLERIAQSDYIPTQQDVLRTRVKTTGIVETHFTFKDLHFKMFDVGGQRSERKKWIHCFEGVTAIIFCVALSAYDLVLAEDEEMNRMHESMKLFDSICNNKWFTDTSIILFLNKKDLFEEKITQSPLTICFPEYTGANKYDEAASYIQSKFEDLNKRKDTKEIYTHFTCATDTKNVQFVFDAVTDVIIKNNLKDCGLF

One test concerns the target T1, chimeric human H3 receptor (Homo sapiens, UniProt Q9Y5N1).
T1 construct: made in house; host or cells: Sf9 insect cells (baculovirus); P2 membrane preparation
The test can be described thus: Chimeric human H3 receptor GTP binding assay (agonist-stimulated GTP-gamma35S binding, Example 7). The following applies: Table I; P2 membranes of Sf9 cells, 1 μM histamine as agonist, Ki from IC50 by Cheng-Prusoff. It counts as biochemical. An outline of the steps:
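Sf9 membranes co-expressing chimeric human H3 receptor and heterotrimeric G-protein, 35 μg/tube, in pH 7.4 Tris buffer with 10 μM GDP. Test compounds (10^−10–10^−6 M) competed against 1 μM histamine, […] GTP-gamma35S, 60 min at room temperature. Filter-bound radioactivity counted; IC50 converted to Ki by Cheng-Prusoff. Agonism/inverse agonism tested without histamine (EC50).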
For orientation: GTPγS is a poorly hydrolysed GTP analogue; its binding reports G protein activation.
The Ki is the equilibrium dissociation constant of an inhibitor or competing ligand from its target. Regarding `CC(C)N1CCN(C(=O)CN2CCc3ccccc3C2c2ccccc2)CC1` (centres unmarked) [Compound 52, 2-[2-(4-isopropylpiperazin-1-yl)-2-oxoethyl]-1-phenyl-1,2,3,4-tetrahydroisoquinoline], the Ki is less than 1000 nM.
Still for that read-out and setting: for `COc1ccc2c(c1)CCN(CC(=O)N1CCN(C3CCC3)CC1)C2c1ccccc1Cl` (centres unmarked) [Compound 62, 1-(2-chlorophenyl)-2-[2-(4-cyclobutylpiperazin-1-yl)-2-oxoethyl]-6-methoxy-1,2,3,4-tetrahydroisoquinoline] the value was less than 1000 nM.
Turning to `CC(C)N1CCN(C(=O)CN2CCc3ccccc3C2c2ccccc2F)CC1` (centres unmarked) [Compound 58, 1-(2-fluorophenyl)-2-[2-(4-isopropylpiperazin-1-yl)-2-oxoethyl]-1,2,3,4-tetrahydroisoquinoline], the Ki was less than 1000 nM.
As to `COc1ccc2c(c1)CCN(CC(=O)N1CCN(C3CCC3)CC1)C2` [Compound 60, 2-[2-(4-cyclobutylpiperazin-1-yl)-2-oxoethyl]-6-methoxy-1,2,3,4-tetrahydroisoquinoline], the Ki was less than 1000 nM.

The same test, now with this note: Table II "Ki", symbol *; assay of Example 7.
With `N#Cc1ccccc1-c1ccc2c(c1)CCN(CC(=O)N1CCN(C3CCC3)CC1)C2` [Compound 627, 2-{2-[2-(4-cyclobutylpiperazin-1-yl)-2-oxoethyl]-1,2,3,4-tetrahydroisoquinolin-6-yl}benzonitrile], the Ki is less than 1000 nM.
Same read-out and setting: the result for `CCOCCNc1ccc2c(n1)CCN(CC(=O)N1CCN(C3CCC3)CC1)C2` [Compound 667, 6-[2-(4-cyclobutylpiperazin-1-yl)-2-oxoethyl]-N-(2-ethoxyethyl)-5,6,7,8-tetrahydro-1,6-naphthyridin-2-amine] reads less than 1000 nM; that for `CCC(CC)CNc1ccc2c(n1)CCN(CC(=O)N1CCN(C3CCC3)CC1)C2` [Compound 660, 6-[2-(4-cyclobutylpiperazin-1-yl)-2-oxoethyl]-N-(2-ethylbutyl)-5,6,7,8-tetrahydro-1,6-naphthyridin-2-amine], less than 1000 nM; that for `COC1CCN(c2ccc3c(n2)CCN(CC(=O)N2CCN(C4CCC4)CC2)C3)CC1` [Compound 681, 6-[2-(4-cyclobutylpiperazin-1-yl)-2-oxoethyl]-2-(4-methoxypiperidin-1-yl)-5,6,7,8-tetrahydro-1,6-naphthyridine], less than 1000 nM.

Still in this test, the particulars now being: Table II; "*" = Ki in assay of Example 7 less than 1 micromolar.
In the case of `O=C(CN1CCc2ncc(N3CCOCC3)nc2C1)N1CCN(C2CCC2)CC1` [Compound 241, 6-[2-(4-cyclobutylpiperazin-1-yl)-2-oxoethyl]-3-morpholin-4-yl-5,6,7,8-tetrahydropyrido[3,4-b]pyrazine], the Ki is less than 1000 nM.
In the case of `O=C(CN1CCc2nn(-c3cncnc3)cc2C1)N1CCN(C2CCC2)CC1` [Compound 252, 5-[2-(4-cyclobutylpiperazin-1-yl)-2-oxoethyl]-2-pyrimidin-5-yl-4,5,6,7-tetrahydro-2H-pyrazolo[4,3-c]pyridine], the Ki is less than 1000 nM.
Same read-out and setting: the result for `O=C(CN1CCc2cc(-n3ccnn3)ccc2C1)N1CCN(C2CCC2)CC1` [Compound 208, 2-[2-(4-cyclobutylpiperazin-1-yl)-2-oxoethyl]-6-(1H-1,2,3-triazol-1-yl)-1,2,3,4-tetrahydroisoquinoline] reads less than 1000 nM.
Same read-out and setting: the result for `N#Cc1ccc(-n2ncc3c2CCN(CC(=O)N2CCN(C4CCC4)CC2)C3)nn1` [Compound 215, 6-{5-[2-(4-cyclobutylpiperazin-1-yl)-2-oxoethyl]-4,5,6,7-tetrahydro-1H-pyrazolo[4,3-c]pyridin-1-yl}pyridazine-3-carbonitrile] reads less than 1000 nM; that for `CC1CN(C(=O)CN2CCc3nc(C(=O)NC4CCC4)ccc3C2)CCN1C1CCC1` (centres unmarked) [Compound 126, N-cyclobutyl-6-[2-(4-cyclobutyl-3-methylpiperazin-1-yl)-2-oxoethyl)-5,6,7,8-tetrahydro-1,6-naphthyridine-2-carboxamide], less than 1000 nM.
Same read-out and setting: for `O=C(CN1CCc2cc(-n3ccc(C(F)(F)F)n3)ccc2C1)N1CCN2CCCCC2C1` (centres unmarked) [Compound 159, 2-({6-[3-(trifluoromethyl)-1H-pyrazol-1-yl]-3,4-dihydroisoquinolin-2(1H)-yl}acetyl)octahydro-2H-pyrido[1,2-a]pyrazine] the value was less than 1000 nM; for `O=C(CN1CCc2nc(-c3ccccc3)ncc2C1)N1CCN(C2CCC2)CC1` [Compound 247, 6-[2-(4-cyclobutylpiperazin-1-yl)-2-oxoethyl]-2-phenyl-5,6,7,8-tetrahydropyrido[4,3-d]pyrimidine], less than 1000 nM; for `CC1CCCC1N1CCN(C(=O)CN2CCc3nc(N4CCOCC4)ncc3C2)CC1` (centres unmarked) [Compound 205, 6-{2-[4-(2-methylcyclopentyl)piperazin-1-yl]-2-oxoethyl}-2-morpholin-4-yl-5,6,7,8-tetrahydropyrido[4,3-d]pyrimidine], less than 1000 nM.
On to `Cc1c2c(nn1-c1ccc(C#N)cn1)CCN(CC(=O)N1CCN(C3CCC3)CC1)C2` [Compound 274, 6-{5-[2-(4-cyclobutylpiperazin-1-yl)-2-oxoethyl]-3-methyl-4,5,6,7-tetrahydro-2H-pyrazolo[4,3-c]pyridin-2-yl}nicotinonitrile], for which the Ki is less than 1000 nM.
The same measure, in the same setting: the result for `O=C(CN1CCc2cc(OC3CCCC3)ccc2C1)N1CCN(C2CCC2)CC1` [Compound 196, 2-[2-(4-cyclobutylpiperazin-1-yl)-2-oxoethyl]-6-(cyclopentyloxy)-1,2,3,4-tetrahydroisoquinoline] reads less than 1000 nM; that for `CCOC(=O)c1cnc2c(c1)CCN(CC(=O)N1CCN(C3CCC3)C(C)C1)C2` (centres unmarked) [Compound 117, ethyl 7-[2-(4-cyclobutyl-3-methylpiperazin-1-yl)-2-oxoethyl]-5,6,7,8-tetrahydro-1,7-naphthyridine-3-carboxylate], less than 1000 nM.
Still for that read-out and setting: the result for `CNC(=O)c1cnc2c(c1)CCN(CC(=O)N1CCN(C3CCC3)C(C)C1)C2` (centres unmarked) [Compound 121, 7-[2-(4-cyclobutyl-3-methylpiperazin-1-yl)-2-oxoethyl]-N-methyl-5,6,7,8-tetrahydro-1,7-naphthyridine-3-carboxamide] reads less than 1000 nM; that for `O=C(CN1CCc2nc(-c3cncnc3)ccc2C1)N1CCN(C2CCC2)CC1` [Compound 171, 6-[2-(4-cyclobutylpiperazin-1-yl)-2-oxoethyl]-2-pyrimidin-5-yl-5,6,7,8-tetrahydro-1,6-naphthyridine], less than 1000 nM.
On to `Cn1cc(-n2cc3c(n2)CCN(CC(=O)N2CCN(C4CCC4)CC2)C3)ccc1=O` [Compound 262, 5-{5-[2-(4-cyclobutylpiperazin-1-yl)-2-oxoethyl]-4,5,6,7-tetrahydro-2H-pyrazolo[4,3-c]pyridin-2-yl}-1-methylpyridin-2(1H)-one], for which the Ki is less than 1000 nM.
Turning to `CC1CN(c2ccc3c(n2)CCN(CC(=O)N2CCN4C(C)CCC[C@H]4C2)C3)CC(C)O1` (stereo in doubt) [Compound 179, 2-(2,6-dimethylmorpholin-4-yl)-6-[2-(6-methyloctahydro-2H-pyrido[1,2-a]pyrazin-2-yl)-2-oxoethyl]-5,6,7,8-tetrahydro-1,6-naphthyridine], the Ki was less than 1000 nM.
On to `O=C(CN1CCc2nc(-c3cccnc3)ncc2C1)N1CCN(C2CCC2)CC1` [Compound 143, 6-[2-(4-cyclobutylpiperazin-1-yl)-2-oxoethyl]-2-pyridin-3-yl-5,6,7,8-tetrahydropyrido[4,3-d]pyrimidine], for which the Ki is less than 1000 nM.

The same test, now with this note: assay of Example 7; "*" in Ki of Table II.
Take `Cc1ccc(F)c(-c2nc3c(s2)CN(CC(=O)N2CCN(C4CCC4)CC2)CC3)c1Cl` [Compound 365, 2-(2-chloro-6-fluoro-3-methylphenyl)-5-[2-(4-cyclobutylpiperazin-1-yl)-2-oxoethyl]-4,5,6,7-tetrahydro[1,3]thiazolo [5,4-c]pyridine]: the Ki was less than 1000 nM.
Same read-out and setting: the result for `O=C(CN1CCc2nc(-c3cc(F)cc(F)c3)sc2C1)N1CCN(C2CCC2)CC1` [Compound 355, 5-[2-(4-cyclobutylpiperazin-1-yl)-2-oxoethyl]-2-(3,5-difluorophenyl)-4,5,6,7-tetrahydro[1,3]thiazolo [5,4-c]pyridine] reads less than 1000 nM.
Still for that read-out and setting: for `O=C(CN1CCc2nc(-c3ccc(Cl)cc3Cl)sc2C1)N1CCN(C2CCC2)CC1` [Compound 359, 5-[2-(4-cyclobutylpiperazin-1-yl)-2-oxoethyl]-2-(2,4-dichlorophenyl)-4,5,6,7-tetrahydro[1,3]thiazolo [5,4-c]pyridine] the value was less than 1000 nM; for `O=C(CN1CCc2nc(-c3ccc(F)cc3F)sc2C1)N1CCN(C2CCC2)CC1` [Compound 348, 5-[2-(4-cyclobutylpiperazin-1-yl)-2-oxoethyl]-2-(2,4-difluorophenyl)-4,5,6,7-tetrahydro[1,3]thiazolo [5,4-c]pyridine], less than 1000 nM.
For `COc1ccc(OC)c(-c2nc3c(s2)CN(CC(=O)N2CCN(C4CCC4)CC2)CC3)c1` [Compound 339, 5-[2-(4-cyclobutylpiperazin-1-yl)-2-oxoethyl]-2-(2,5-dimethoxyphenyl)-4,5,6,7-tetrahydro[1,3]thiazolo [5,4-c]pyridine], the Ki was less than 1000 nM.
On to `O=C(CN1CCc2c(cnn2-c2cccnn2)C1)N1CCN(C2CCC2)CC1` [Compound 285, 5-[2-(4-cyclobutylpiperazin-1-yl)-2-oxoethyl]-1-pyridazin-3-yl-4,5,6,7-tetrahydro-1H-pyrazolo[4,3-c]pyridine], for which the Ki is less than 1000 nM.
On the same count and under the same terms, the result for `O=C(CN1CCc2nc(-c3ccc(OC(F)(F)F)cc3)sc2C1)N1CCN(C2CCC2)CC1` [Compound 316, 5-[2-(4-cyclobutylpiperazin-1-yl)-2-oxoethyl]-2-[4-(trifluoromethoxy)phenyl]-4,5,6,7-tetrahydro[1,3]thiazolo [5,4-c]pyridine] reads less than 1000 nM; that for `Cc1cccc(C)c1-c1nc2c(s1)CN(CC(=O)N1CCN(C3CCC3)CC1)CC2` [Compound 363, 5-[2-(4-cyclobutylpiperazin-1-yl)-2-oxoethyl]-2-(2,6-dimethylphenyl)-4,5,6,7-tetrahydro[1,3]thiazolo [5,4-c]pyridine], less than 1000 nM.
